Each block holds one molecule with its values, some of them ahead of it.
How the values were obtained:
[1] = target: human SAP binding to TNP-KLH coated polystyrene (Homo sapiens, UniProt P02743); test: Inhibition of binding of human SAP to TNP-KLH coated polystyrene; settings: for IC50 / concentration at 50% inhibition of human SAP binding to TNP-KLH coated polystyrene: 40 ng/ml human SAP, preincubated 2 hours at 20° C.; for IC50: read-out: concentration at 50% inhibition of human SAP binding to TNP-KLH coated polystyrene
Description: The samples containing 40 ng/ml human SAP are preincubated with dilutions of the compound to be tested as an inhibitor for two hours at 20° C. The perent decrease in SAP binding to TNP-KLH is calculated in comparison to the SAP binding in the absence of any inhibitor.

[2] = Retention of SAP on TNP-Sepharose column; format: binding, human; settings: absence of Ca^2+ ions, TBS
[3] = ELISA for SAP: binding of purified human SAP to plastic surface
Description: The wells of flat-bottom polystyrene microtiter plates (Immulon®, Dynatech, Zug, Switzerland) or polyvinyl chloride microtiter plates (Microtest III™, Becton Dickinson, Oxnard, CA, USA) are incubated with either 100 μl 0.3M NaHCO3 alone, 100 μl KLH 2 μg/ml in 0.3M NaHCO3, or 100 μl TNP-KLH (Example 1) 2 μg/ml in 0.3M NaHCO3 for one hour or more at room temperature. […] The plates are washed with 5 mM CaCl2, then incubated with 100 μl each of human SAP containing samples (standard solutions or serum dilutions in ELISA buffer) for 2 hours at 20° C. […] The plates are washed with 5 mM CaCl2, incubated for 2 hours at 20° C. with 100 μl of rabbit antiserum to human SAP (Calbiochem) diluted 1:10^4 with ELISA buffer, washed again with 5 mM CaCl2, and incubated overnight in a water-saturated atmosphere at 20° C. with 100 μl of horseradish peroxidase conjugated donkey anti-rabbit Ig antiserum (Amersham Int., Amersham, UK) diluted 1:5000 with ELISA buffer. The plates are washed, then developed with 100 μl per well of buffered o-phenylenediamine (100 mg in 48.6 ml 0.1M citric acid and 51.4 ml 0.2M Na2 HPO4, pH 5.0) containing 0.03% H2 O2 in the dark at 20° C. for 15 minutes. The reaction is stopped by addition of 25 μl 2.5M H2 SO4 and the optical density of the colour developed by the enzyme reaction determined at 492 nm using a Titertek® multiscan spectrophotometer (Flow Laboratories). […]

[4] = ELISA for SAA: binding of human SAA to polystyrene

human SAP binding to TNP-KLH coated polystyrene, sequence (P02743 20-223): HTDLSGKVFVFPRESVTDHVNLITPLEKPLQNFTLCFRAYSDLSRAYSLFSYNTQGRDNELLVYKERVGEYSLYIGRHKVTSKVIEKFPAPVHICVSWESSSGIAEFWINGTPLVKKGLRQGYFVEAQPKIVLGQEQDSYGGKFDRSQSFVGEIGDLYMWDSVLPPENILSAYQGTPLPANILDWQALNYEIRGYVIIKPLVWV

Molecule: O=[N+]([O-])c1cc([N+](=O)[O-])c2ccc(S(=O)(=O)O)cc2c1O [2,4-dinitro-1-naphthol-7-sulphonic acid]
- inhibition of SAP binding to TNP-KLH coated polystyrene, in words [1]: Inhibiting properties
- IC50 [1]: 43.3 ± 5.8 mM

Molecule: O=C(O)CN(CCN(CC(=O)O)CC(=O)O)CC(=O)O [EDTA, ethylenediamine-N,N,N',N'-tetraacetic acid]
- inhibition of SAP binding to TNP-KLH coated polystyrene, in words [1]: inhibitors of SAP binding at concentrations equal or in excess of the Ca^2+ concentration
- IC50 [1]: 5.35 ± 1.3 mM

Molecule: Nc1ccc([As](=O)(O)O)cc1 [p-aminophenyl-arsonic acid]
- inhibition of SAP binding to TNP-KLH coated polystyrene, in words [1]: Inhibiting properties
- IC50 [1]: 27.3 ± 4.9 mM

Molecule: O=[N+]([O-])c1ccc([As](=O)(O)O)cc1 [p-nitrophenylarsonic acid]
- inhibition of SAP binding to TNP-KLH coated polystyrene, in words [1]: Inhibiting properties
- IC50 [1]: 4.2 ± 1.3 mM

Continued, in another order:

- IC50 [1]: 17 ± 2.2 mM
Molecule: O=C(O)CN(CCOCCOCCN(CC(=O)O)CC(=O)O)CC(=O)O [EGTA, 1,2-di(2-aminoethoxy)ethane-N,N,N',N'-tetraacetic acid]
- inhibition of SAP binding to TNP-KLH coated polystyrene, in words [1]: inhibitors of SAP binding at concentrations equal or in excess of the Ca^2+ concentration

- SAP binding at reduced CaCl2 concentration ([3]; 0.06 mM or lower concentrations of CaCl2): no SAP is bound
- SAP binding at reduced CaCl2 concentration ([3]; 0.12 mM CaCl2): sharp decrease of SAP binding
Molecule: SAP: serum amyloid P-component, a 9.5S α1 glycoprotein of 235'000 Dalton molecular weight
- retention of SAP on TNP-Sepharose [2]: not retained

- inhibition of SAP binding to TNP-KLH coated polystyrene, in words [1]: compete efficiently for SAP
- concentration at 50% inhibition of human SAP binding to TNP-KLH coated polystyrene [1]: 0.33 ± 0.06 µg/mL
Molecule: TNP-BSA: prepared from BSA and 2,4,6-trinitrobenzenesulfonic acid yielding a conjugate with 15 TNP residues per BSA molecule

- inhibition of SAP binding to TNP-KLH coated polystyrene, in words [1]: Inhibiting properties
- concentration at 50% inhibition of human SAP binding to TNP-KLH coated polystyrene [1]: 0.2 ± 0.07 µg/mL
Molecule: pectic acid

- binding of human SAA to KLH-coated polystyrene and polystyrene alone, in words ([4]; KLH-coated polystyrene and polystyrene alone): Substantial binding
- binding of human SAA to polystyrene coated with TNP-KLH, in words ([4]; TNP-KLH coated polystyrene): very efficiently
- binding of human SAA when Ca^2+ is omitted, in words ([4]; TNP-KLH coated polystyrene, Ca^2+ omitted): without loss in binding efficiency
B1: SAA: α1 globulin consisting of a single polypeptide chain of molecular weight between 11'500 and 14'000 Dalton (protein, UniProt P0DJI8 19-122, looked up)
Serum amyloid A-1 protein: RSFFSFLGEAFDGARDMWRAYSDMREANYIGSDKYFHARGNYDAAKRGPGGAWAAEVITDARENIQRFFGHGAEDSLADQAANEWGRSGKDPNHFRPAGLPEKY
